Measurements published in patent US5451397A, “Bile acid sequestrant” (priority 1992, dated 1995).

System: Chinese hamster ovary (CHO) cell cultures
Type: cell-based
Method: A suspension of particles of the sequestrant in deionized water was prepared. The suspension was serially diluted into serumless culture medium. The most concentrated suspension tested was 1000 micrograms sequestrant per milliliter suspension (μg/ml). Exponentially growing Chinese hamster ovary (CHO) cell cultures were treated with the sequestrant dilutions for three hours. The cultures were gently rocked on a rocker platform during treatment in an attempt to maintain a uniform suspension over the cells for the entire treatment period. Negative controls i.e., CHO cell cultures treated with serumless culture medium, and solvent controls, i.e., CHO cell cultures treated with 1% deionized water in serumless culture medium, were included. Treatment was terminated by washing the cultures twice with Dulbecco's phosphate buffered saline and cells were allowed to recover in McCoy's 5A medium containing 10% fetal bovine serum for 0, 5 or 21 hours, i.e., 3, 8 or 24 hours from the beginning of treatment. […] The harvested cells were counted by Coulter counter to determine relative reductions in cell numbers. At selected doses, Trypan blue exclusion counts were conducted using a hemacytometer to determine cell viability to control for the possibility that some dead cells may have been counted with the Coulter counter. […]

Substance: poly(dimethylaminopropylmethacrylamide) [Comparative Example C1]
- ED50 (dosage effective to kill 50% of the cells): 10.0 µg/mL
